Source: publication PMC11606603, “The membrane domains of mammalian adenylyl cyclases are lipid receptors” (eLife, 2024)
“And” between values parts separate entries of the source, which are not always exact repeats. Equal entries are not always repeated.

Key:
Type in all cases: biochemical
mAC6 = molecular target: T1, mAC6 (Homo sapiens, UniProt O43306); test: AC assay, Gsα-stimulated mAC6 in membranes from transfected HEK293 cells; settings: 20µM fatty acid concentration
T1 construct: Human mAC genes were from GenScript and fitted with a C-terminal FLAG-tag; FLAG (C); made in house; host or cells: HEK293, permanently transfected; membrane preparation
Protocol: (§1) hAC sequences were from NCBI were: ADCY1: NM_021116.3; ADCY2: NM_020546.2; ADCY3: NM_004036.4; ADCY4: NM_001198568.2; ADCY5: NM_183357.2; ADCY6: NM_015270.4; ADCY7: NM_001114.4; ADCY8: NM_001115.2; ADCY9: NM_001116.3. Human mAC genes were from GenScript and fitted with a C-terminal FLAG-tag. […] The gene was synthesized by GenScript. HEK293 cells were maintained in Dulbeccos Modified Eagle Medium (DMEM) with 10% fetal bovine serum at 37°C and 5% CO2. Transfection with AC plasmids was with PolyJet (SignaGen, Frederick, MD, USA). Permanent cell lines were generated by selection for 7 days with 600 µg/ml G418 and maintained with 300 µg/ml For membrane preparation, cells were tyrpsinized, collected by centrifugation (3000 × g, 5 min) and lysed and homogenized in 20 mM HEPES, pH 7.5, 1 mM Ethylenediaminetetraacetic acid (EDTA), 2 mM MgCl2, 1 mM Dithiothreitol (DTT), one tablet of cOmplete, EDTA-free (per 50 ml) and 250 mM sucrose by 20 strokes in a potter homogenizer on ice. Debris was removed (5 min at 1000 × g, 0°C), membranes were collected at 100,000 × g, 60 min at 0°C, suspended and stored at −80°C in 20 mM MOPS, pH 7.5, 0.5 mM EDTA, 2 mM MgCl2. […] Three cerebral cortices were dissected and homogenized in 4.5 ml cold 48 mM Tris–HCl, pH 7.4, 12 mM MgC1_2, and 0.1 mM Ethylene glycol-bis(β-aminoethyl ether)-N,N,N′,N′-tetraacetic acid (EGTA) with a Polytron hand disperser (Kinematica AG, Switzerland). […] The pellet was washed once with 5 ml 1 mM KHCO3. The final suspension in 2 ml 1 mM KHCO3 was stored in aliquots at −80°C.
(§2) In a volume of 10 μl, AC activities were measured using 1 mM ATP, 2 mM MgCl2, 3 mM creatine phosphate, 60 μg/ml creatine kinase, and 50 mM MOPS pH 7.5. The cAMP assay kit from Cisbio (Codolet, France) was used for detection according to the supplier’s instructions. For each assay, a cAMP standard curve was established. EC50 and IC50 values were calculated by GraphPad Prism version 8.4.3 for Windows, GraphPad Software, San Diego, CA, USA, https://www.graphpad.com .

mAC1 = molecular target: T2, mAC1 (Homo sapiens, UniProt Q08828); test: AC assay, Gsα-stimulated mAC1 in membranes from transfected HEK293 cells
T2 construct: Human mAC genes were from GenScript and fitted with a C-terminal FLAG-tag; FLAG (C); made in house; host or cells: HEK293, permanently transfected; membrane preparation
Protocol: as §1, §2

mAC5 = molecular target: T3, mAC5 (Homo sapiens, UniProt O95622); test: AC assay, Gsα-stimulated mAC5 in membranes from transfected HEK293 cells; settings: 20µM fatty acid concentration
T3 construct: Human mAC genes were from GenScript and fitted with a C-terminal FLAG-tag; FLAG (C); made in house; host or cells: HEK293, permanently transfected; membrane preparation
Protocol: as §1, §2

mAC2 = molecular target: T4, mAC2 (Homo sapiens, UniProt Q08462); test: AC assay, Gsα-stimulated mAC2 in membranes from transfected HEK293 cells; settings: Figure 5-figure supplement 1 left, 20 µM
T4 construct: Human mAC genes were from GenScript and fitted with a C-terminal FLAG-tag; FLAG (C); made in house; host or cells: HEK293, permanently transfected; membrane preparation
Protocol: as §1, §2

mAC8 = molecular target: T5, mAC8 (Homo sapiens, UniProt P40145); test: AC assay, Gsα-stimulated mAC8 in membranes from transfected HEK293 cells; settings: 20µM fatty acid concentration
T5 construct: Human mAC genes were from GenScript and fitted with a C-terminal FLAG-tag; FLAG (C); made in house; host or cells: HEK293, permanently transfected; membrane preparation
Protocol: as §1, §2

mAC7 = molecular target: T6, mAC7 (Homo sapiens, UniProt P51828); test: AC assay, Gsα-stimulated mAC7 in membranes from transfected HEK293 cells; settings: Figure 5-figure supplement 2 left, 20 µM
T6 construct: Human mAC genes were from GenScript and fitted with a C-terminal FLAG-tag; FLAG (C); made in house; host or cells: HEK293, permanently transfected; membrane preparation
Protocol: as §1, §2

mAC3 = molecular target: T7, mAC3 (Homo sapiens, UniProt O60266); test: AC assay, Gsα-stimulated mAC3 in membranes from transfected HEK293 cells; settings: for Effect of lipid on 300 nM Gsα-stimulated mAC3: 20 µM, in words; for mAC3 activity [%] (100% = 300nM Gsα stimulation): fatty acid 20 µM, individual experiments
T7 construct: Human mAC genes were from GenScript and fitted with a C-terminal FLAG-tag; FLAG (C); made in house; host or cells: HEK293, permanently transfected; membrane preparation
Protocol: as §1, §2

mAC4 = molecular target: T8, mAC4 (Homo sapiens, UniProt Q8NFM4); test: AC assay, Gsα-stimulated mAC4 in membranes from transfected HEK293 cells
T8 construct: Human mAC genes were from GenScript and fitted with a C-terminal FLAG-tag; FLAG (C); made in house; host or cells: HEK293, permanently transfected; membrane preparation
T8 sequence (Q8NFM4 1-1077): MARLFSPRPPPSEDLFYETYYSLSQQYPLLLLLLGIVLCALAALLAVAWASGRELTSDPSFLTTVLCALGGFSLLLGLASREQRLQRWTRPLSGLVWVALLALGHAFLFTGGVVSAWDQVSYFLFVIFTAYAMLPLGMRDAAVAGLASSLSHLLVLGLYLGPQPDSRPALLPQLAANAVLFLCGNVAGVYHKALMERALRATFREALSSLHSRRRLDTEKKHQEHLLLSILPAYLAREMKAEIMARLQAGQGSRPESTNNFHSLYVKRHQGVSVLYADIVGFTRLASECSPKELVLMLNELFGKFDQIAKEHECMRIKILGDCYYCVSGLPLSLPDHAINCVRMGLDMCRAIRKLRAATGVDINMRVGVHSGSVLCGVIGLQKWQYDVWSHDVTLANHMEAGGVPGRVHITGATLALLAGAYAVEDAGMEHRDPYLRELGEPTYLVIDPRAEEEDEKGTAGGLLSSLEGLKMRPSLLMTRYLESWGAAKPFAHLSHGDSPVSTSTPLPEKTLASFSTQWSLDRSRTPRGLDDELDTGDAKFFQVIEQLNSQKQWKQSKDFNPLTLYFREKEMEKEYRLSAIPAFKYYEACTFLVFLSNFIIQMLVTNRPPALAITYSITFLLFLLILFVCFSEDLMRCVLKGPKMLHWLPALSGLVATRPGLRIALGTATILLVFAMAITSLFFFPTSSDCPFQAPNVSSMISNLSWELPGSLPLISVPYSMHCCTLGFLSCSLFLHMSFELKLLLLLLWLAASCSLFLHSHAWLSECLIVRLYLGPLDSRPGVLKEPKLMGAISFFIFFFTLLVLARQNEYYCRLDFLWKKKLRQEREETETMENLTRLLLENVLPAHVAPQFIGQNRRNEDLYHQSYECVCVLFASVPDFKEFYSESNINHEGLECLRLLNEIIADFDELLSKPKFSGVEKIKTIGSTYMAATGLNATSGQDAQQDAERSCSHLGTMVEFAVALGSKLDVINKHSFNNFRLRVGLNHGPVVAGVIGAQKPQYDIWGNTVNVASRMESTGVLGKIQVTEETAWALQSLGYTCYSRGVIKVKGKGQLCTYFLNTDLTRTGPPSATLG
Protocol: as §1, §2

mAC9 = molecular target: T9, mAC9 (Homo sapiens, UniProt O60503); test: AC assay, Gsα-stimulated mAC9 in membranes from transfected HEK293 cells; settings: 300 nM Gsα, single experiments
T9 construct: Human mAC genes were from GenScript and fitted with a C-terminal FLAG-tag; FLAG (C); made in house; host or cells: HEK293, permanently transfected; membrane preparation
Protocol: as §1, §2

T9 sequence (O60503 whole entry): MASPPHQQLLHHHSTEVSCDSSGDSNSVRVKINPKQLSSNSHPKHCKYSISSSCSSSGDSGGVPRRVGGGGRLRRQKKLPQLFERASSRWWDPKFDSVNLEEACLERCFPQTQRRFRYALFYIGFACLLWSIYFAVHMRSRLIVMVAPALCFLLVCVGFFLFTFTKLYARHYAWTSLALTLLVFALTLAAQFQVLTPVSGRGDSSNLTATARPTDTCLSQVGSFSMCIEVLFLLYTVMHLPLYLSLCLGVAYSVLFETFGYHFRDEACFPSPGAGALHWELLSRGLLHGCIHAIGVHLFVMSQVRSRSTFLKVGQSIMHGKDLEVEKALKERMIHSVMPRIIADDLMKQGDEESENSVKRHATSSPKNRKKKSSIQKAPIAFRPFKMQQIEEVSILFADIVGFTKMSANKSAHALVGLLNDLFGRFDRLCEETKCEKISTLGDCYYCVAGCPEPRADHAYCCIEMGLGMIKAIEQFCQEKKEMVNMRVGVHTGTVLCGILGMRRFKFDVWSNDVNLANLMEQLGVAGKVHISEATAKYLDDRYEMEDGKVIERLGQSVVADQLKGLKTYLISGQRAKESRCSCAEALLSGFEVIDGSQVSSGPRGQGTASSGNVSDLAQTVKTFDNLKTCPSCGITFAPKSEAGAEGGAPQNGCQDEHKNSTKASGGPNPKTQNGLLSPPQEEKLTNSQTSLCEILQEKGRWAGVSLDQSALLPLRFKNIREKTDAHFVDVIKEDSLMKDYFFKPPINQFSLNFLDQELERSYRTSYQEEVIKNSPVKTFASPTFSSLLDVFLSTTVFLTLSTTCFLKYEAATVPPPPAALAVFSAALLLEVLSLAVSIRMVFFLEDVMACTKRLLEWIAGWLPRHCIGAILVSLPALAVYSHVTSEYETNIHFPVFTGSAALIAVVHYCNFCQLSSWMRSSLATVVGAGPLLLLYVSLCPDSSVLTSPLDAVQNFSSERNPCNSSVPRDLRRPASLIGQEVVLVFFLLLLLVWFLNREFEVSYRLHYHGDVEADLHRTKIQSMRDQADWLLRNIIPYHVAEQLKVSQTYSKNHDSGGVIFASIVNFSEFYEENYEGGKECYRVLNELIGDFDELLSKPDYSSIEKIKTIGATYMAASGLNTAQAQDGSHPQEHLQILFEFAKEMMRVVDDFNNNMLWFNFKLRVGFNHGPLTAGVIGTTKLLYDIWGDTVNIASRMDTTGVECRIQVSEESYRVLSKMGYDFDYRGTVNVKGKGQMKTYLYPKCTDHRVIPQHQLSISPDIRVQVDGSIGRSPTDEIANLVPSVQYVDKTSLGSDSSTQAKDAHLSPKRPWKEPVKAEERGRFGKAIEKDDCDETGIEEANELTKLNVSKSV
T9 sequence (P63092 2-394 Q227L partner): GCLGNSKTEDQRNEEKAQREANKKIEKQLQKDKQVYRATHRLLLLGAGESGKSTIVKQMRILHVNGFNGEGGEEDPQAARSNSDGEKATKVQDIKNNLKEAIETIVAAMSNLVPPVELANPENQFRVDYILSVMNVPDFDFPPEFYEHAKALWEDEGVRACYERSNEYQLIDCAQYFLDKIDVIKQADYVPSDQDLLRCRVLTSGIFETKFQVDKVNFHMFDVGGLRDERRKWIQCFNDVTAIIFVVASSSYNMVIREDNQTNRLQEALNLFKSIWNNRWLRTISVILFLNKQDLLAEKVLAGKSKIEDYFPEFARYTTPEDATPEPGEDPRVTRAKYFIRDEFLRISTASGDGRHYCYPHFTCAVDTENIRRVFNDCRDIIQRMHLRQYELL
T3 sequence (O95622 whole entry): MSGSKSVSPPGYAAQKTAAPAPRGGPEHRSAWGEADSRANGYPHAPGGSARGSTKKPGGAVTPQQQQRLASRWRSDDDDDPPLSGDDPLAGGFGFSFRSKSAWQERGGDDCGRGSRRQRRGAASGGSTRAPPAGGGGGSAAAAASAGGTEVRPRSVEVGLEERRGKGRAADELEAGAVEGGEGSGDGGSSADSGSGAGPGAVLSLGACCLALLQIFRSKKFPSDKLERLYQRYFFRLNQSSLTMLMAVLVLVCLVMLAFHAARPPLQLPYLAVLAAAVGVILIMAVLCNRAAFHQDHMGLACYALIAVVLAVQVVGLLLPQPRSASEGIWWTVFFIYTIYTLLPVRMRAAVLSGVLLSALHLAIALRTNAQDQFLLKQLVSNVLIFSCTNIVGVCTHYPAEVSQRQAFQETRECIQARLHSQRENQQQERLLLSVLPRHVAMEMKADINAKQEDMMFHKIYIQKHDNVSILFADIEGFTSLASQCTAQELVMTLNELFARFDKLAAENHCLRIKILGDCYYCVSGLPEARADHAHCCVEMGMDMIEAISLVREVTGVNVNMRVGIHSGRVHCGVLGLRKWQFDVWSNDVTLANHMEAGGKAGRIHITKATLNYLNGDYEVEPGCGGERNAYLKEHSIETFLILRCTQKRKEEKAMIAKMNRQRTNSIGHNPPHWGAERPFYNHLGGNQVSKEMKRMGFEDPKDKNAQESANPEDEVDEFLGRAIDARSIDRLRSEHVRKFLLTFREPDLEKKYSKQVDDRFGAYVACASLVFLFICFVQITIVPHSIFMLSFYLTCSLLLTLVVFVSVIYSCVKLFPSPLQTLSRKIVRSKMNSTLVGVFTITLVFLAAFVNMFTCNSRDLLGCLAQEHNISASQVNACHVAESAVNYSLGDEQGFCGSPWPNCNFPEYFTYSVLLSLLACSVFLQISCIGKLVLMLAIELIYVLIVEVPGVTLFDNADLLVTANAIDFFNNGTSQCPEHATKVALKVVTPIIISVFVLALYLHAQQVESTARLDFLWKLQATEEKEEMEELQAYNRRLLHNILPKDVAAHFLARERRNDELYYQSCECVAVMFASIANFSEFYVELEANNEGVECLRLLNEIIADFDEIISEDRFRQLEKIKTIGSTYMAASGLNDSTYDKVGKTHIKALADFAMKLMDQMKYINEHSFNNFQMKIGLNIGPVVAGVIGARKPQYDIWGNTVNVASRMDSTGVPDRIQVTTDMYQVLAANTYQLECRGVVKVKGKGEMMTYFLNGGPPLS
T5 sequence (P40145 whole entry): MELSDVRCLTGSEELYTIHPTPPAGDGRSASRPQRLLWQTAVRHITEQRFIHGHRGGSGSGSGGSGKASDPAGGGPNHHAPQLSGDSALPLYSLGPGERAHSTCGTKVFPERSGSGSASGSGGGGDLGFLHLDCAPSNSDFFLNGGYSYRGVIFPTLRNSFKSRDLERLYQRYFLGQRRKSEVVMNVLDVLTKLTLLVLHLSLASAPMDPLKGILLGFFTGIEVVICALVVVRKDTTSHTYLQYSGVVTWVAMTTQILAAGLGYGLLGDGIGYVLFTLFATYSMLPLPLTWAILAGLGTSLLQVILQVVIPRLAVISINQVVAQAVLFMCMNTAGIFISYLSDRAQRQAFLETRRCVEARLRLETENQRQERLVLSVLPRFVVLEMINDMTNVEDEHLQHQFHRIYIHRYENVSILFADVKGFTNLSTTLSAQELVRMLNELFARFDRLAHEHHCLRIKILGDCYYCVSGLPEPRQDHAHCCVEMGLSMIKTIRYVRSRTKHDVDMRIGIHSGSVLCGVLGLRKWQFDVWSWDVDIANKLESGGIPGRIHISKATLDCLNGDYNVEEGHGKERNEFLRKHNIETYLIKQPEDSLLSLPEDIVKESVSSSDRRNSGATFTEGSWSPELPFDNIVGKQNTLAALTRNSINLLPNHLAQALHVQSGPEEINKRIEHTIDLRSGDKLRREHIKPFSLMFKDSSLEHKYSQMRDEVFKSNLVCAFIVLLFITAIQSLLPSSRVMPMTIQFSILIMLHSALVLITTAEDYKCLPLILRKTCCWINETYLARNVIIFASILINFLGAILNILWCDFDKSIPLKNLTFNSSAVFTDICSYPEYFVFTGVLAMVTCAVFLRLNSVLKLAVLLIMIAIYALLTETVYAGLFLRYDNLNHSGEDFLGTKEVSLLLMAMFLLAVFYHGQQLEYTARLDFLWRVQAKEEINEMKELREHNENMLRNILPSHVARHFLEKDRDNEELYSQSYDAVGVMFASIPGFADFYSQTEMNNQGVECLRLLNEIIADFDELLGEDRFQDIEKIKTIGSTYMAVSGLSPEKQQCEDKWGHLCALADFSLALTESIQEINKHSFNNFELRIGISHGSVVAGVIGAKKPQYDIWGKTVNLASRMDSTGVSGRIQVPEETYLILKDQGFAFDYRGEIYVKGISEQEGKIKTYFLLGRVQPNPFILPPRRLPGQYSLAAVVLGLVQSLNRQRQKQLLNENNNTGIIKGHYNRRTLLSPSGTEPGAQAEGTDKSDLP

Row | SMILES | mAC6 activity [%] (100% = 300nM Gsα stimulation) (mAC6) | mAC1 activity [%] (100% = 300nM Gsα stimulation); 20µM fatty acid concentration (mAC1; 300 nM Gsα, single experiments) | mAC5 activity [%] (100% = 300nM Gsα stimulation) (mAC5) | mAC2 activity [%] (100% = 300nM Gsα stimulation); 20µM fatty acid concentration (mAC2) | mAC8 activity [%] (100% = 300nM Gsα stimulation) (mAC8) | mAC7 activity [%] (100% = 300nM Gsα stimulation); 20µM fatty acid concentration (mAC7) | Effect of lipid on 300 nM Gsα-stimulated mAC3 (mAC3) | mAC3 activity [%] (100% = 300nM Gsα stimulation) (mAC3) | mAC4 activity [%] (100% = 300nM Gsα stimulation); 20µM fatty acid concentration (mAC4; 300 nM Gsα, single experiments) | mAC9 activity (%);(100% = Gsα stimulation) stimulated by 300nM Gsα (mAC9; 1 µM fatty acid) | mAC9 activity [%] (100% = 300nM Gsα stimulation); 20µM fatty acid concentration (mAC9; 20 µM fatty acid) | further results
1 | CCCCCCCCCCCCCC(=O)O [Myristic acid, Myristic (tetradecanoic) acid] | 98% and 72% and 83% | 91% and 96% and 101% | 105% and 80% and 76% | 102% and 121% and 90% and 101% | 119% and 130% and 99% | 94% and 152% and 85% and 110% | no significant effect | 90% and 108% and 224% and 226% | 71% and 59% and 97% | 82% and 122% and 127% and 109% and 126% and 137% | 185% and 310% and 168% and 189% and 240% | mAC9 activity (%);(100% = Gsα stimulation) stimulated by 300nM Gsα (mAC9; 3 µM fatty acid): 129% and 111% and 136% and 125%; mAC9 activity (%);(100% = Gsα stimulation) stimulated by 300nM Gsα (mAC9; 6 µM fatty acid): 104% and 129% and 178% and 179% and 144% and 168%; mAC9 activity (%);(100% = Gsα stimulation) stimulated by 300nM Gsα (mAC9; 10 µM fatty acid): 130% and 135% and 224% and 171% and 187% and 200% and 115%; mAC9 activity (%);(100% = Gsα stimulation) stimulated by 300nM Gsα (mAC9; 20 µM fatty acid): 168% and 189% and 240% and 185% and 310%
2 | CCCC/C=C\CCCCCCCC(=O)O [Myristoleic acid, Myristoleic ((9Z)-tetradecenoic) acid] | 92% and 96% | 90% and 103% and 77% | 79% and 90% and 96% | 106% and 81% and 89% | 62% and 117% and 101% | 92% and 95% and 67% | – | 82% and 156% and 95% | 79% and 94% and 104% | – | 88% and 116% and 130% | –
3 | CCCCCC/C=C\CCCCCCCC(=O)O [Palmitoleic acid, Palmitoleic ((9Z)-hexadecenoic) acid] | 71% and 89% and 68% | 56% and 77% and 83% and 82% and 92% | 99% and 92% and 101% | 82% and 120% and 125% | 116% and 103% and 76% | 91% and 107% and 128% | less efficacious | 151% and 133% and 248% and 259% and 116% and 136% and 292% | 58% and 74% and 53% and 64% and 83% | 136% and 130% and 125% | – | IC50 (mAC1): 49 µM; activity at 1 µM (mAC1; 1 µM, 300 nM Gsα, single experiments, read-out: mAC1 activity (%);(100% = Gsα stimulation) stimulated by 300nM Gsα): 84%; activity at 6 µM (mAC1; 6 µM, 300 nM Gsα, single experiments, read-out: mAC1 activity (%);(100% = Gsα stimulation) stimulated by 300nM Gsα): 97%; Effect of lipid on 300 nM Gsα-stimulated mAC1 (mAC1; 20 µM, in words): somewhat less; activity at 25 µM (mAC1; 25 µM, 300 nM Gsα, single experiments, read-out: mAC1 activity (%);(100% = Gsα stimulation) stimulated by 300nM Gsα): 50%; activity at 50 µM (mAC1; 50 µM, 300 nM Gsα, single experiments, read-out: mAC1 activity (%);(100% = Gsα stimulation) stimulated by 300nM Gsα): 31%; activity at 0.1 µM (mAC1; read-out: mAC1 activity (%);(100% = Gsα stimulation) stimulated by 300nM Gsα, 0.1 µM, 300 nM Gsα, single experiments (reference point, all 100)): 100%; Effect of lipid on 300 nM Gsα-stimulated mAC4 (mAC4; 20 µM, in words): somewhat less; IC50 (mAC4; attenuation of 300 nM Gsα-stimulated activity, read-out: IC50 for mAC4): 20 µM; activity at 0.1 µM (mAC4; read-out: mAC4 activity (%);(100% = Gsα stimulation) stimulated by 300nM Gsα, 0.1 µM, 300 nM Gsα, single experiments (reference point, all 100)): 100%; activity at 25 µM (mAC4; read-out: mAC4 activity (%);(100% = Gsα stimulation) stimulated by 300nM Gsα, 25 µM, 300 nM Gsα, single experiments): 49%; activity at 50 µM (mAC4; read-out: mAC4 activity (%);(100% = Gsα stimulation) stimulated by 300nM Gsα, 50 µM, 300 nM Gsα, single experiments): 19%; activity at 60 µM (mAC4; read-out: mAC4 activity (%);(100% = Gsα stimulation) stimulated by 300nM Gsα, 60 µM, 300 nM Gsα, single experiments): 75%; activity at 100 µM (mAC4; read-out: mAC4 activity (%);(100% = Gsα stimulation) stimulated by 300nM Gsα, 100 µM, 300 nM Gsα, single experiments): 44%
4 | CCCCCCCCCCCCCCCCCC [Octadecane] | 80% and 141% | 96% and 100% | 82% and 128% | 74% and 87% | 129% and 109% | 87% and 68% | – | 67% and 79% | 71% and 92% | – | 70% and 95% | –
